Source: PubChem BioAssay AID2060620 (Molecular Pharmacology Branch, DTP, NCI, 2025)

System: 328373-195-R-J1-PDC complex spheroids, viability % test/control
Experiment: Anticancer human tumor 328373-195-R-J1-PDC patient-derived head and neck squamous carcinoma cell line growth inhibition [CLK]
Details: for IC50: curve of first compound; for viability, T/C: stronger effect = lower value; active means viability on the fitted dose curve at most 10% of control; inactive means the rest
From the text: A high-throughput screen of multi-cell type tumor spheroids was designed to identify active combinations of […] and targeted small molecules. Complex spheroids include a stromal component modeled by human endothelial cells (HUVEC) and fibroblasts modeled by human mesenchymal stem cells (MSCs). The concentration ranges selected for each drug and investigational agent were based upon clinically achievable concentrations if the clinical Cmax of the agent was known.
Compounds. The drugs and investigational agents: cirtuvivint (SM08502; NSC835563), CC-671 (NSC850746), vemurafenib (NSC761431), tapotoclax (NSC804041), sotorasib (NSC818433), adagrasib (NSC831453), MRTX-1133 (NSC836407), BAY2416964 (NSC825713), copanlisib (NSC816437), inavolisib (NSC800729), abemaciclib (NSC768073), osimertinib (NSC779217), entinostat (NSC756642), eltanexor (KPT-8602, NSC794443), venetoclax (NSC766270), ceralasertib (NSC777638), bortezomib (NSC756655), olaparib (NSC753686), talazoparib (NSC767125), alisertib (NSC759677), peposertib (NSC802822), gemcitabine (NSC613327), 5-fluorouracil (NSC19893), SN-38 (NSC673596), oxaliplatin (NSC266046), paclitaxel (NSC125973), and doxorubicin (NSC123127), were obtained from the National Cancer Institute (NCI) Developmental Therapeutics Program Chemical Repository. The FDA-approved anticancer drug set is available from the Developmental Therapeutics Program at https://dtp.cancer.gov/organization/dscb/obtaining/available plates.htm. […] The stock solutions were prepared in dimethyl sulfoxide (DMSO, Sigma-Aldrich, St. Louis, MO, cat. D2650), except for the platinum complexes which were prepared in saline (Quality Biological, Gaithersburg, MD, cat. 114-055-101), at 800-fold the tested concentration and stored at -70 degrees C prior to their use. All drugs and investigational agents were tested over a range starting from a high concentration at or near the clinical Cmax and decreasing in half-log increments. If the clinical Cmax for an agent had not been determined, the highest concentration tested was 10 microM.
Cell Culture. All cells were maintained in an incubator at 37 degrees C and 5% CO2 with 95% humidity. The PDC lines were cultured according to standard operating procedures established by the NCI PDMR. Briefly, all PDCs were thawed and cultured in Matrigel-coated flasks prepared with a working solution of 1X Ham's F-12 nutrient mix, without supplementation (Invitrogen, Waltham, MA, cat. 11765054), 100 U/mL penicillin-streptomycin (Invitrogen, cat. 15140122), and 2.5% Matrigel (Corning Inc., Corning, NY, cat. 354248) for the first three passages. The 947758-054-R-J2-PDC line was cultured in 6B/Colon 1A media, which includes advanced DMEM/F-12 (Thermo Fisher Scientific, cat. 12634028), 10 mM HEPES (Thermo Fisher Scientific, cat. 15630080), 1X GlutaMAX supplement (Thermo Fisher Scientific, cat. 35050061), 0.1 mg/mL primocin (InvivoGen, cat. ant-pm-2), 10% defined fetal bovine serum, heat inactivated (HyClone Laboratories Inc., cat. SH30070.03HI), 1.25 mM N-Acetyl-L-cysteine (Sigma-Aldrich, cat. A9165), 10 mM nicotinamide (Sigma-Aldrich, cat. N0636), 1X B-27 supplement (Thermo Fisher Scientific, cat. 17504044), 1X N-2 supplement (Thermo Fisher Scientific, cat. 17502048), and 10 microM Y-27632 dihydrochloride (Tocris Bioscience, cat. 1254). The 876862-298-R-J1-PDC was cultured in 6E media, which includes all 6B/Colon 1A media components plus 50% L-WRN conditioned media (ATCC, cat. CRL-3276), 50 ng/mL recombinant human EGF recombinant protein (hEGF; Thermo Fisher Scientific, cat. PHG0311), 10 ng/mL recombinant human fibroblast growth factor 10 (hGFG-10; PeproTech, cat. 100-26), 1 ng/mL recombinant human fibroblast growth factor 2 (hFGF-2; PeproTech, cat. 100-18B), and 1 µM prostaglandin E2 (PGE2; Tocris, cat. 2296). The 227483-062-R1-J1-PDC line was cultured in Panc media, containing all 6E components except hFGF-2, with the addition of 500 nM SB-431542 (Selleckchem, cat. S1067) and 10 nM gastrin (Tocris, cat. 3006). […]

[1] = second compound 0.0316 µM, first compound 0.0316 µM
[2] = second compound 0.0316 µM, first compound 0.1 µM
[3] = second compound 0.0316 µM, first compound 0.316 µM
[4] = second compound 0.0316 µM, first compound 1 µM
[5] = second compound 0.0316 µM, first compound 3.16 µM
[6] = second compound 0.0316 µM, first compound 10 µM
[7] = second compound 0.1 µM, first compound 0.0316 µM
[8] = second compound 0.1 µM, first compound 0.1 µM
[9] = second compound 0.1 µM, first compound 0.316 µM
[10] = second compound 0.1 µM, first compound 1 µM
[11] = second compound 0.1 µM, first compound 3.16 µM
[12] = second compound 0.1 µM, first compound 10 µM
[13] = second compound 0.316 µM, first compound 0.0316 µM
[14] = second compound 0.316 µM, first compound 0.1 µM
[15] = second compound 0.316 µM, first compound 0.316 µM
[16] = second compound 0.316 µM, first compound 1 µM
[17] = second compound 0.316 µM, first compound 3.16 µM
[18] = second compound 0.316 µM, first compound 10 µM
[19] = second compound 1 µM, first compound 0.0316 µM
[20] = second compound 1 µM, first compound 0.1 µM
[21] = second compound 1 µM, first compound 0.316 µM
[22] = second compound 1 µM, first compound 1 µM
[23] = second compound 1 µM, first compound 3.16 µM
[24] = second compound 1 µM, first compound 10 µM
[25] = second compound 3.16 µM, first compound 0.0316 µM
[26] = second compound 3.16 µM, first compound 0.1 µM
[27] = second compound 3.16 µM, first compound 0.316 µM
[28] = second compound 3.16 µM, first compound 1 µM
[29] = second compound 3.16 µM, first compound 3.16 µM
[30] = second compound 3.16 µM, first compound 10 µM
[31] = second compound 10 µM, first compound 0.0316 µM
[32] = second compound 10 µM, first compound 0.1 µM
[33] = second compound 10 µM, first compound 0.316 µM
[34] = second compound 10 µM, first compound 1 µM
[35] = second compound 10 µM, first compound 3.16 µM
[36] = second compound 10 µM, first compound 10 µM
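Further: spheroids exposed to the agents for 7 days.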

C#Cc1c(F)ccc2cc(O)cc(-c3ncc4c(N5CC6CCC(C5)N6)nc(OCC56CCCN5CC(F)C6)nc4c3F)c12 (stereo unspecified) + CN1CCN(c2cc(C(=O)Nc3cc4cc(-c5cnn(C)c5)ccc4cn3)ccn2)CC1
> 10000 nM: IC50 (second compound 0.0316 µM) | IC50 (second compound 0.1 µM)
< 31.6 nM: IC50 (second compound 0.316 µM) | IC50 (second compound 1 µM) | IC50 (second compound 3.16 µM) | IC50 (second compound 10 µM)
active: viability, T/C [19] 0.24% | viability, T/C [20] 0.32% | viability, T/C [21] 1.75% | viability, T/C [22] 0.29% | viability, T/C [23] 0.2% | viability, T/C [24] 2.89% | viability, T/C [25] 0.63% | viability, T/C [26] 2.27% | viability, T/C [27] 3.6% | viability, T/C [28] 0.18% | viability, T/C [29] 0.13% | viability, T/C [30] 0.34% | viability, T/C [31] 1.89% | viability, T/C [32] 0.19% | viability, T/C [33] 0.24% | viability, T/C [34] 0.19% | viability, T/C [35] 0.19% | viability, T/C [36] 1.27%
inactive: viability, T/C [1] 92.8% | viability, T/C [2] 88% | viability, T/C [3] 109% | viability, T/C [4] 93.9% | viability, T/C [5] 103% | viability, T/C [6] 81.5% | viability, T/C [7] 80.8% | viability, T/C [8] 85.2% | viability, T/C [9] 80.1% | viability, T/C [10] 83.2% | viability, T/C [11] 88.8% | viability, T/C [12] 62.4% | viability, T/C [13] 34% | viability, T/C [14] 34.8% | viability, T/C [15] 30.9% | viability, T/C [16] 39.2% | viability, T/C [17] 32.8% | viability, T/C [18] 16.9%

C=C(F)C(=O)N1CCN(c2nc(OCC3CCCN3C)nc3c2CCN(c2cccc4cccc(Cl)c24)C3)CC1CC#N (stereo unspecified) + CN1CCN(c2cc(C(=O)Nc3cc4cc(-c5cnn(C)c5)ccc4cn3)ccn2)CC1
inactive: viability, T/C [1] 103% | viability, T/C [2] 99.5% | viability, T/C [3] 96.9% | viability, T/C [4] 91.5% | viability, T/C [5] 63% | viability, T/C [7] 80.5% | viability, T/C [8] 90.8% | viability, T/C [9] 81.7% | viability, T/C [10] 81.6% | viability, T/C [11] 55.7% | viability, T/C [13] 35.2% | viability, T/C [14] 38.1% | viability, T/C [15] 34.7% | viability, T/C [16] 34.3% | viability, T/C [17] 22.8%
active: viability, T/C [6] 3.75% | viability, T/C [12] 1.67% | viability, T/C [18] 3.9% | viability, T/C [19] 0.25% | viability, T/C [20] 4.59% | viability, T/C [21] 1.43% | viability, T/C [22] 0.34% | viability, T/C [23] 1.34% | viability, T/C [24] 0.52% | viability, T/C [25] 2.92% | viability, T/C [26] 0.86% | viability, T/C [27] 1.39% | viability, T/C [28] 1.82% | viability, T/C [29] 5.78% | viability, T/C [30] 0.76% | viability, T/C [31] 4.95% | viability, T/C [32] 2.58% | viability, T/C [33] 0.33% | viability, T/C [34] 0.79% | viability, T/C [35] 1.9% | viability, T/C [36] 0.96%
< 31.6 nM: IC50 (second compound 0.316 µM) | IC50 (second compound 1 µM) | IC50 (second compound 3.16 µM) | IC50 (second compound 10 µM)
3570 nM: IC50 (second compound 0.1 µM)
4080 nM: IC50 (second compound 0.0316 µM)

CC(CO)NC(=O)c1cc(-c2ccc(Cl)cc2)nn(-c2cnn(C)c2)c1=O (stereo unspecified) + CN1CCN(c2cc(C(=O)Nc3cc4cc(-c5cnn(C)c5)ccc4cn3)ccn2)CC1
< 31.6 nM: IC50 (second compound 0.316 µM) | IC50 (second compound 1 µM) | IC50 (second compound 3.16 µM) | IC50 (second compound 10 µM)
> 10000 nM: IC50 (second compound 0.0316 µM) | IC50 (second compound 0.1 µM)
inactive: viability, T/C [1] 108% | viability, T/C [2] 99.5% | viability, T/C [3] 114% | viability, T/C [4] 106% | viability, T/C [5] 105% | viability, T/C [6] 97.6% | viability, T/C [7] 86.1% | viability, T/C [8] 92.1% | viability, T/C [9] 94.7% | viability, T/C [10] 98% | viability, T/C [11] 92.6% | viability, T/C [12] 82.6% | viability, T/C [13] 32.2% | viability, T/C [14] 39% | viability, T/C [15] 35.2% | viability, T/C [16] 39.5% | viability, T/C [17] 38% | viability, T/C [18] 33.9%
active: viability, T/C [19] 0.23% | viability, T/C [20] 0.27% | viability, T/C [21] 1.91% | viability, T/C [22] 1.81% | viability, T/C [23] 1.3% | viability, T/C [24] 2.16% | viability, T/C [25] 2.73% | viability, T/C [26] 1.98% | viability, T/C [27] 1.71% | viability, T/C [28] 0.57% | viability, T/C [29] 3.9% | viability, T/C [30] 2.11% | viability, T/C [31] 0.74% | viability, T/C [32] 0.62% | viability, T/C [33] 0.43% | viability, T/C [34] 1% | viability, T/C [35] 0.24% | viability, T/C [36] 3.1%
